Measurements from paper PMC6423055, “Cathelicidins PMAP-36, LL-37 and CATH-2 are similar peptides with different modes of action” (Scientific Reports, 2019).
Where two headings read alike, the source gives them in different places. Positions of bridges follow the written chain, without caps; N, C: chain ends. Chains are numbered I, II in the order given. No end group written: not given here.

Columns and labels:
Escherichia coli O78 [1] = assay type: cell-based
Method: Escherichia coli O78 (E. coli) (Clinical isolate, Zoetis Animal Health, Kalamazoo, MI, USA) was grown in Mueller Hinton Broth (MHB) (Becton Dickinson, USA) to mid-logarithmic phase under constant shaking (200 RPM) at 37 °C. Antimicrobial activity of the peptides was tested using the colony count assay as described before. […] Next, 10-fold dilutions were made, of which 100 μl of the dilutions was spread to tryptic soy agar (TSA) (Oxoid, Basingstoke, UK) plates. Plates were incubated overnight at 37 °C and colonies were counted to determine the number of surviving bacteria. Minimal Bactericidal Concentration (MBC) was defined as ≤100 CFU/ml, the detection limit of the assay.
(§1) For transmission electron microscopy (TEM), E. coli was used in a higher concentration, (5*10^8 CFU/ml). […] E. coli was incubated with the peptides at MBC concentration or sub-MBC concentration (4x below MBC concentration). After 60 min at 37 °C, fixative (4% glutaraldehyde, 5 mM CaCl2, 10 mM MgCl2 (all from Merck, Darmstadt, Germany) in 0.1 M sodium cacodylate buffer (Sigma) pH 7.4) was added 1:1 to the bacterial-peptide mixture and left for fixation overnight at 4 °C. Samples were washed three times in 0.1 M sodium cacodylate buffer and resuspended in 4% low melting point agarose (Sigma). Samples were post-fixed with 1% osmium tetroxide (Electron Microscopy Sciences (EMS), Hatfield, PA, USA), 1.5% K3Fe(CN)6 (Merck) and 65 mM sodium cacodylate buffer for 2 hours at 4 °C to improve the contrast. After extensive washing with distilled water (5 × 10 min), samples were incubated for 60 min with 0.5% uranyl acetate (EMS) at 4 °C to improve cytoplasmic contrast. After washing with distilled water (3 × 10 min), samples were dehydrated with increasing concentration ethanol and embedded in Epon. […] Morphological effects were quantified for around 100 cells per condition.

porcine red blood cells = assay: Hemolysis (heme release); settings: peptide 0.63–40 μM, 60 min 37 °C, A405, 0.2% Triton X-100 = 100% lysis, N = 5–7
RAW264.7 cells = assay: Cell viability, WST-1 assay; settings: WST-1, 24 h, peptide up to 40 μM, no peptide = 100% viability
porcine PBMCs = assay: Cell viability, WST-1 assay; settings: WST-1, 24 h, effect at 20–40 μM, N = 6
[2] = system: LPS-induced TNFα secretion by RAW264.7 cells; assay: LPS stimulation, TNFα release (ELISA); assay type: cell-based, murine; settings: for LPS neutralization, TNFα secretion: compared with full-length PMAP-36
[3] = system: LPS-induced NO production by RAW264.7 cells; assay type: cell-based, murine; settings: 100 ng/ml LPS O111:B4, 24 h, Griess assay, compared with full-length PMAP-36
Escherichia coli O78 [4] = settings: for Antibacterial activity against E. coli O78 compared with parent or dimeric counterpart: N = 3–7; for Minimal Bactericidal Concentration (MBC): O78, 3 h
Escherichia coli O78 [5] = assay: Transmission electron microscopy of peptide-treated bacteria; assay type: cell-based; settings: TEM, 5*10^8 CFU/ml, 60 min 37 °C
Method: as §1

[6] = Isothermal titration calorimetry, peptide binding to LPS; set-up: species or system Escherichia coli; settings: ITC, 37 °C
Method: Isothermal titration calorimetry (ITC) was performed with the Low Volume NanoITC (TA Instruments-Waters LLC, New Castle, DE, USA) to determine interaction between LPS and the different peptides. 100 μM UltraPure LPS E. coli O111:B4 was diluted in MilliQ, after which 4x dilution in dPBS (Gibco) was made. Peptides were diluted to 800 μM in MilliQ, followed by 4-fold dilution in dPBS. The chamber was filled with 164 μl LPS, the peptide was titrated into the chamber with 1.96 μl every 300 seconds. Experiments were performed at 37 °C and analyzed using the Nano Analyze software (TA instruments-Waters LLC). All experiments were performed 2 times and corrected for buffer in buffer titration, after which the both experiments were averaged. Two independent models were used, except for LL-37 with one independent model fit, to determine the peptide-LPS interaction.

Compound | LPS neutralization, TNFα secretion ([2]; 100 ng/ml LPS O111:B4, 24 h) | LPS neutralization, NO production [3] | Antibacterial activity against E. coli O78 compared with parent or dimeric counterpart (Escherichia coli O78 [4]; 10^6 CFU/ml, 3 h 37 °C) | Minimal Bactericidal Concentration (MBC) (Escherichia coli O78 [4]) | other results
CC[C@H](C)[C@H](NC(=O)[C@H](CCCCN)NC(=O)[C@H](CCC(=O)O)NC(=O)[C@H](CCCCN)NC(=O)[C@H](CO)NC(=O)[C@H](CCCCN)NC(=O)[C@H](CCCNC(=N)N)NC(=O)[C@H](Cc1ccccc1)NC(=O)[C@H](Cc1ccccc1)NC(=O)[C@H](CC(=O)O)NC(=O)CNC(=O)[C@H](CC(C)C)NC(=O)[C@@H](N)CC(C)C)C(=O)NCC(=O)N[C@@H](CCCCN)C(=O)N[C@@H](CCC(=O)O)C(=O)N[C@@H](Cc1ccccc1)C(=O)N[C@@H](CCCCN)C(=O)N[C@@H](CCCNC(=N)N)C(=O)N[C@H](C(=O)N[C@H](C(=O)N[C@@H](CCC(N)=O)C(=O)N[C@@H](CCCNC(=N)N)C(=O)N[C@H](C(=O)N[C@@H](CCCCN)C(=O)N[C@@H](CC(=O)O)C(=O)N[C@@H](Cc1ccccc1)C(=O)N[C@@H](CC(C)C)C(=O)N[C@@H](CCCNC(=N)N)C(=O)N[C@@H](CC(N)=O)C(=O)N[C@@H](CC(C)C)C(=O)N[C@H](C(=O)N1CCC[C@H]1C(=O)N[C@@H](CCCNC(=N)N)C(=O)N[C@H](C(=O)N[C@@H](CCC(=O)O)C(=O)N[C@@H](CO)C(=O)O)[C@@H](C)O)C(C)C)[C@@H](C)CC)C(C)C)[C@@H](C)CC [LL-37] | – | – | – | – | MBC at higher density of bacteria (Escherichia coli O78 [1]; 5*10^8 CFU/ml E. coli O78, density used for TEM): 160 µM; Hemolysis of porcine erythrocytes (porcine red blood cells): less than 10%; Cytotoxicity against RAW264.7 cells (RAW264.7 cells): mildly cytotoxic; Cytotoxicity against porcine PBMCs (porcine PBMCs): not
Ac-GRFRRLRKKTRKRLKKIGKVLKWIPPIVGSIPLGS [mP1] | as efficient as the full-length peptide | as efficient as the full-length peptide | slightly increased compared to their dimeric counterparts | – | –
Ac-KIGKVLKWIPPIVGSIPLGS [mP16] | – | – | lost its antibacterial activity completely | – | –
Ac-KRLKKIGKVLKWIPPIVGSIPLGCG (disulfide (positions not given here)) [Peptide P12, PMAP-36 analog with N-terminal truncation of 11 amino acids] | as strongly inhibited | as strongly inhibited | slightly more efficient than the full-length peptide | – | –
Ac-KRLKKIGKVLKWIPPIVGSIPLGS [mP12] | strongly reduced LPS neutralizing capacity | strongly reduced LPS neutralizing capacity | identical to P12 | – | –
Ac-RKKTRKRLKKIGKVLKWIPPIVGSIPLGS [mP7] | strongly reduced LPS neutralizing capacity | strongly reduced LPS neutralizing capacity | slightly increased compared to their dimeric counterparts | – | –
I: Ac-GRFRRLRKKTRKRLKKIGKVLKWIPPIVGSIPLGCG / II: Ac-GRFRRLRKKTRKRLKKIGKVLKWIPPIVGSIPLGCG (disulfide I:35-II:35) [PMAP-36] | – | – | – | 5 to 10 µM | MBC at higher density of bacteria (Escherichia coli O78 [1]; O78, 3 h): 20 µM; Morphological changes of E. coli O78 at sub-MBC (Escherichia coli O78 [5]; 4x below MBC (PMAP-36 5 μM, CATH-2 10 μM, LL-37 40 μM)): release of small vesicles; Morphological changes of E. coli O78 at MBC (Escherichia coli O78 [5]; MBC (PMAP-36 20 μM, CATH-2 40 μM, LL-37 160 μM)): DNA and ribosomes were clustered and located close to the inner membrane; Concentration completely blocking TNFα secretion ([2]; 100 ng/ml LPS O111:B4, 24 h, N = 3): 10 µM; IC50 ([2]; 100 ng/ml LPS O111:B4, RAW264.7, 24 h, read-out: Concentration reducing LPS-induced macrophage activation for 50%): 5 µM; LPS binding [6]: strong LPS binding capacity; Concentration giving significant inhibition of E. coli O78 (Escherichia coli O78 [4]; 10^6 CFU/ml, 3 h 37 °C, vs no peptide control, N = 3–4): 2.5 µM
I: Ac-KIGKVLKWIPPIVGSIPLGCG / II: Ac-KIGKVLKWIPPIVGSIPLGCG (disulfide I:20-II:20) [Peptide P16] | completely lost its LPS neutralizing capacity | completely lost its LPS neutralizing capacity | – | > 40 µM | LPS binding [6]: still bound strongly to LPS
I: Ac-RKKTRKRLKKIGKVLKWIPPIVGSIPLGCG / II: Ac-RKKTRKRLKKIGKVLKWIPPIVGSIPLGCG (disulfide I:29-II:29) [Peptide P7] | as strongly inhibited | as strongly inhibited | slightly more efficient than the full-length peptide | – | –
RFGRFLRKIRRFRPKVTITIQGSARF-NH2 [CATH-2] | – | – | – | 5 to 10 µM | MBC at higher density of bacteria (Escherichia coli O78 [1]; O78, 3 h): 40 µM
